Measurements taken from US9616056B2, “Inhibition of leukotriene synthesis and activity in the treatment of sonic hedgehog-associated medulloblastoma” (Institute for Cancer Research, priority 2013, dated 2017).
“Also recorded” adds a separate entry of the source.

How the values were obtained:
[1] = system: tumor cells isolated from Math1-Cre/Ptch1^C/C animals (MB cells); assay: Tumor cell proliferation in vitro by Ki67 immunostaining; assay type: cell-based, mouse; settings: 48 hrs treatment, 3 μM, vs DMSO (FIG. 5)
Description: 48 hrs later, the percentage of proliferating cells was calculated after immunostaining the culture with antibody against Ki67.
Tumor cells isolated from the mouse model were treated with MK886 or DMSO as a control. At 48 hrs after treatment, tumor cells were analyzed for proliferation by immunostaining for Ki67.
DMSO was used as a negative control.

[2] = system: GBM cell lines T98G, U-87MG and U251; assay: GBM cell viability by Alamar blue assay; assay type: cell-based; settings: various concentrations, 48 hrs (FIG. 8)
Description: Three GBM cell lines (T98G, U87-MG and U251) were plated and treated with MK886 and Montelukast at various concentrations for 48 hrs. Cell viability was measured by Alamar blue assay. Data represent the average of triplicate+SD. *p<0.05
To test the efficacy of leukotriene inhibitors in preventing glioblastoma cell proliferation, three GBM cell lines: T98G, U-87MG and U251 (purchased from an in-house cell culture facility) were utilized. The cell lines were treated with MK886 and Montelukast at different concentrations. After treatment for 48 hrs, cell survival and growth was analyzed by Alamar blue assay (Al-Nasiry, S et al. (2007) Hum. Reprod. 22:1304-9).

[3] = system: tumor cells isolated from Math1-Cre/Ptch1^C/C animals (MB cells); assay: Nestin expression in cultured medulloblastoma tumor cells (immunostaining); assay type: cell-based, mouse
Description: (§1) GNPs isolated from Ptch1^C/C animals were plated and infected with lentivirus carrying Cre recombinase to delete Ptch1. At 48 hrs following the infection, GNPs were stained for Cre (green) and Nestin (red) in control (Panel A) and in the presence of 20 ng/ml leukotriene (Panel B). MB cells were plated in vitro for 48 hrs, and stained for Nestin (red) in control (Panel C) and in the presence of 5 μM MK886. (Panel D).
Tumor cells isolated from Math1-Cre/Ptch1^C/C animals, were treated with 3 μM DMSO (Panels A and B) or MK886 (Panels C and D) in vitro. After 48 hrs treatment, tumor cells were harvested for immunostaining with antibodies against Nestin (red) and Ki67 (green) (Panels B and D). The same cultures were counterstained by DAPI (blue) to show the total cell number (Panels A and B).
To further examine whether Leukotriene synthesis is required for Nestin expression in tumor cells, tumor cells were isolated from the mouse model, which has already highly expresses Nestin in vivo, even in the culture at 48 hrs following plating.
It was next investigated whether leukotriene inhibition can prevent tumor cell proliferation. […] At 48 hrs after treatment, tumor cells were analyzed for proliferation by immunostaining for Ki67. […]

[4] = system: medulloblastoma in Math1-Cre/Ptch1^C/C animals; assay: In vivo tumor growth in tumor bearing Math1-Cre/Ptch1^C/C animals; set-up: species or system mouse
Description: Tumor bearing animals were treated with MK886 or DMSO by IP injection. After 1 month treatment, tumors were harvested. Tumor size was reduced by 30% with the treatment of MK886 (Panel A). After the treatment, tumors were sectioned for immunostaining for Nestin (Panels B and D), and Ki67 (Panels C and E). In the control (Panels B and C), tumor cells extensively express Nestin (Panel B) and all the tumor cells were Ki67 positive (Panel C).
Next, the efficacy of MK886 in inhibiting in vivo tumor growth was evaluated. Math1-Cre/Ptch1^C/C animals at postnatal day 21 were treated daily with 30 μg MK886 by intraperitoneal injection. Three weeks later, tumor volume was evaluated by MRI imaging.
Nestin expression and Ki67 was compared in tumor sections by immunohistochemical analysis.

Ptch1-deficient GNPs = assay: Induction of Nestin expression in Ptch1-deficient GNPs (immunocytochemistry); assay type: cell-based, mouse; settings: 20 ng/ml leukotriene, 48 hrs after Cre lentivirus infection
Description: as §1
Since Nestin is a cytoskeleton protein, it was examined whether leukotriene could induce Nestin expression in medulloblastoma cells. For this purpose, cerebellar GNPs were isolated from Ptch1^C/C animals, and Patched1 (Ptch1) was deleted from GNPs by using a lentivirus with Cre recombinase. At 48 hrs following the infection, cells were harvested to analyze Nestin expression by immunocytochemistry. […] The presence of Nestin mRNA and protein has been confirmed by RT-PCR and western blotting (data not shown).

CC(C)c1ccc2c(c1)c(SC(C)(C)C)c(CC(C)(C)C(=O)[O-])n2Cc1ccc(Cl)cc1.[Na+] [MK886, 1-[(4-Chlorophenyl)methyl]-3-[(1,1-dimethylethyl)thio]-α,α-dimethyl-5-(1-methylethyl)-1H-Indole-2-propanoic acid]
proliferation among tumor cells (Ki67) [1]: prevented the proliferation | viability of GBM cells [2]: effectively reduce the viability | Nestin expression in tumor cells ([3]; 48 hrs treatment, 3 μM, vs DMSO (FIG. 5)): markedly inhibited | Nestin expression among tumor cells ([3]; MB cells plated in vitro 48 hrs, 5 μM MK886 (FIG. 4)): dramatically inhibited | decrease of tumor size in volume (MRI imaging) ([4]; 30 μg MK886 daily intraperitoneal from postnatal day 21, three weeks, vs DMSO): over 30% | tumor size reduction ([4]; IP injection, after 1 month treatment, tumors harvested (FIG. 7 Panel A)): 30% | Nestin expression in tumor sections after treatment ([4]; immunostaining of tumor sections after MK886 treatment vs DMSO): dramatically reduced; also recorded: almost no Nestin is present | number of Ki67 positive cells in tumor ([4]; tumor sections after MK886 treatment compared with control): decreased dramatically | tumor cells still positive for Ki67 ([4]; tumor sections after MK886 treatment, control all cells Ki67 positive (FIG. 7 Panel E)): around 30%

leukotriene
Nestin protein among Ptch1-deficient GNPs (Ptch1-deficient GNPs): high level of Nestin protein was detected

CC(C)(O)c1ccccc1CC[C@@H](SCC1(CC(=O)O)CC1)c1cccc(/C=C/c2ccc3ccc(Cl)cc3n2)c1 [Montelukast, (R,E)-2-(1-((1-(3-(2-(7-chloroquinolin-2-yl)vinyl)phenyl)-3-(2-(2-hydroxypropan-2-yl)phenyl)propylthio)methyl)cyclopropyl)acetic acid]
viability of GBM cells [2]: effectively reduce the viability
